{"source": "patent US11534457B2", "about": "“Use of dextran sulfate” (priority 2017, dated 2022)", "system": "severe traumatic brain injury (sTBI)", "assay": "sTBI in rats, HPLC of purine-pyrimidine / energy metabolites in brain (Example 3)", "format": "in vivo, Male Wistar rats", "protocol": "The experimental protocol used in this study was approved by the Ethical Committee of the Catholic University of Rome, according to international standards and guidelines for animal care. Male Wistar rats of 300-350 g body weight (b.w.) were fed with standard laboratory diet and water ad libitum in a controlled environment.\n1) n=6 animals subjected to sTBI, with drug administration after 30 minutes and sacrifice at 2 days post-TBI (Acute phase 1)\n2) n=6 animals subjected to severe-TBI, with drug administration after 30 minutes and sacrifice at 7 days post-TBI (Acute phase 2).\n3) n=6 animals subjected to severe-TBI, with drug administration after 3 days and sacrifice at 7 days post-TBI (Chronic phase).\nAs the anesthetic mixture, animals received 35 mg/kg b.w. ketamine and 0.25 mg/kg b.w. midazolam by i.p. injection. sTBI was induced by dropping a 450 g weight from 2 m height on to the rat head that had been protected by a metal disk previously fixed on the skull, according to the “weight drop” impact acceleration model (Marmarou et al., A new model of diffuse brain injury in rats. Part I: Pathophysiology and biomechanics. J Neurosurg. 1994; 80: 291-300). […] At the end of each period of treatment, rats were anesthetized again and then immediately sacrificed.\nThe drug treatment was a subcutaneous injection of 0.5 ml of LMW-DS (15 mg/kg) and administered according to the aforementioned schematic protocol.\nAn in vivo craniectomy was performed in all animals during anesthesia, after carefully removing the rat's skull, the brain was exposed and removed with a surgical spatula and quickly dropped in liquid nitrogen. After the wet weight (w.w.) determination, tissue preparation was affected as previously disclosed (Tavazzi et al., Cerebral oxidative stress and depression of energy metabolism correlate with severity of diffuse brain injury in rats. Neurosurgery. 2005; 56: 582-589; Vagnozzi et al., Temporal window of metabolic brain vulnerability to concussions: mitochondrial-related impairment-part I. Neurosurgery. 2007; 61: 379-388; Tavazzi et al., Temporal window of metabolic brain vulnerability to concussions: oxidative and nitrosative stresses-part II. Neurosurgery. 2007; 61: 390-395; Amorini et al., Severity of experimental traumatic brain injury modulates changes in concentrations of cerebral free amino acids. J Cell Mol Med. 2017; 21: 530-542.). Briefly, whole brain homogenization was performed with 7 ml of ice-cold, nitrogen-saturated, precipitating solution composed by CH3CN+10 mM KH2PO4, pH 7.40, (3:1; v:v), and using an Ultra-Turrax set at 24,000 rpm/min (Janke & Kunkel, Staufen, Germany). After centrifugation at 20,690×g, for 10 min at 4° C., the clear supernatants were saved, pellets were supplemented with 3 ml of the precipitating solution and homogenized again as described above. A second centrifugation was performed (20,690×g, for 10 min at 4° C.), pellets were saved, supernatants combined with those previously obtained, extracted by vigorous agitation with a double volume of HPLC-grade CHCl3 and centrifuged as above. The upper aqueous phases containing water-soluble low-molecular weight compounds were collected, subjected to chloroform washings for two more times (this procedure allowed the removal of all the organic solvent and of any lipid soluble compound from the buffered tissue extracts), adjusted in volumes with 10 mM KH2PO4, pH 7.40, to have ultimately aqueous 10% tissue homogenates and saved at −80° C. until assayed. […]", "key": {"[1]": {"settings": "Acute phase 1: 15 mg/kg s.c. 30 min post-sTBI, sacrifice 2 days"}, "[2]": {"settings": "Acute phase 2: 15 mg/kg s.c. 30 min post-sTBI, sacrifice 7 days"}}, "note": "Marks after values point to notes of the source that are not given here."}
{"substance": "low molecular weight dextran sulfate [LMW-DS]", "values": [{"measurement": "brain MDA levels", "setting": "15 mg/kg s.c.", "value": "significant reduction"}, {"measurement": "brain NAA and its substrates", "setting": "15 mg/kg s.c.", "value": "significant improvements"}, {"measurement": "brain ascorbic acid and GSH levels", "setting": "15 mg/kg s.c.", "value": "significant improvement"}, {"measurement": "brain nitrate concentrations", "setting": "15 mg/kg s.c., acute and chronic phases of sTBI", "value": "significantly decreased"}, {"measurement": "ADO, cerebral concentration", "setting": "[1]", "value": "71.67 ± 15.87 nmol/g (w.w.)"}, {"measurement": "ADP, cerebral concentration", "setting": "[1]", "value": "279.34 ± 29.59^b nmol/g (w.w.)"}, {"measurement": "ADP-ribose, cerebral concentration", "setting": "[1]", "value": "137.87 ± 43.18^a nmol/g (w.w.)"}, {"measurement": "AMP, cerebral concentration", "setting": "[1]", "value": "53.61 ± 17.91^a,c,j nmol/g (w.w.)"}, {"measurement": "ATP, cerebral concentration", "setting": "[1]", "value": "1464.25 ± 99.09^a,h nmol/g (w.w.)"}, {"measurement": "CDP choline, cerebral concentration", "setting": "[1]", "value": "10.93 ± 3.22^b,h nmol/g (w.w.)"}, {"measurement": "CDP, cerebral concentration", "setting": "[1]", "value": "25.53 ± 6.83^a,c nmol/g (w.w.)"}, {"measurement": "CMP, cerebral concentration", "setting": "[1]", "value": "30.12 ± 9.97^a,h nmol/g (w.w.)"}, {"measurement": "CTP, cerebral concentration", "setting": "[1]", "value": "18.98 ± 6.58^a,g nmol/g (w.w.)"}, {"measurement": "CoA-SH, cerebral concentration", "setting": "[1]", "value": "21.61 ± 3.42^a,h nmol/g (w.w.)"}, {"measurement": "GDP glucose, cerebral concentration", "setting": "[1]", "value": "38.71 ± 6.86 nmol/g (w.w.)"}, {"measurement": "GDP, cerebral concentration", "setting": "[1]", "value": "158.72 ± 24.57^a nmol/g (w.w.)"}, {"measurement": "GMP, cerebral concentration", "setting": "[1]", "value": "177.00 ± 32.39^a,g nmol/g (w.w.)"}, {"measurement": "GSH, cerebral concentration", "setting": "[1]", "value": "2649.50 ± 397.31^a,d nmol/g (w.w.)"}, {"measurement": "GSSG, cerebral concentration", "setting": "[1]", "value": "185.21 ± 48.10 nmol/g (w.w.)"}, {"measurement": "GTP, cerebral concentration", "setting": "[1]", "value": "255.29 ± 45.21^a,g nmol/g (w.w.)"}, {"measurement": "IMP, cerebral concentration", "setting": "[1]", "value": "67.71 ± 10.63^g,i nmol/g (w.w.)"}, {"measurement": "MDA, cerebral concentration", "setting": "[1]", "value": "12.47 ± 2.09^a,c,g nmol/g (w.w.)"}, {"measurement": "NADH, cerebral concentration", "setting": "[1]", "value": "15.49 ± 2.05^c,j nmol/g (w.w.)"}, {"measurement": "NADPH, cerebral concentration", "setting": "[1]", "value": "6.22 ± 1.73 nmol/g (w.w.)"}, {"measurement": "NADP^+, cerebral concentration", "setting": "[1]", "value": "17.95 ± 3.28^a nmol/g (w.w.)"}, {"measurement": "NAD^+, cerebral concentration", "setting": "[1]", "value": "404.63 ± 51.10^a,c,i nmol/g (w.w.)"}, {"measurement": "NM, cerebral concentration", "setting": "[1]", "value": "6147.91 ± 989.12^a nmol/g (w.w.)"}, {"measurement": "NO2, cerebral concentration", "setting": "[1]", "value": "216.03 ± 41.74^a nmol/g (w.w.)"}, {"measurement": "NO3, cerebral concentration", "setting": "[1]", "value": "210.64 ± 91.95^d nmol/g (w.w.)"}, {"measurement": "UDP, cerebral concentration", "setting": "[1]", "value": "61.83 ± 10.23^a,g nmol/g (w.w.)"}, {"measurement": "UDP-Gal, cerebral concentration", "setting": "[1]", "value": "119.45 ± 12.50 nmol/g (w.w.)"}, {"measurement": "UDP-GalNac, cerebral concentration", "setting": "[1]", "value": "19.17 ± 4.01^a nmol/g (w.w.)"}, {"measurement": "UDP-Glc, cerebral concentration", "setting": "[1]", "value": "32.14 ± 4.59^g nmol/g (w.w.)"}, {"measurement": "UDP-GlcNac, cerebral concentration", "setting": "[1]", "value": "95.85 ± 19.73^h,i nmol/g (w.w.)"}, {"measurement": "UMP, cerebral concentration", "setting": "[1]", "value": "107.80 ± 21.62 nmol/g (w.w.)"}, {"measurement": "UTP, cerebral concentration", "setting": "[1]", "value": "123.46 ± 15.42^d nmol/g (w.w.)"}, {"measurement": "acetyl-CoA, cerebral concentration", "setting": "[1]", "value": "21.56 ± 6.22^a,g,i nmol/g (w.w.)"}, {"measurement": "adenine, cerebral concentration", "setting": "[1]", "value": "44.82 ± 6.31^a,d,g nmol/g (w.w.)"}, {"measurement": "ascorbic acid, cerebral concentration", "setting": "[1]", "value": "3733.10 ± 277.88^a,d nmol/g (w.w.)"}, {"measurement": "creatinine, cerebral concentration", "setting": "[1]", "value": "24.55 ± 3.20^b,g,i nmol/g (w.w.)"}, {"measurement": "cytidine, cerebral concentration", "setting": "[1]", "value": "15.40 ± 3.04 nmol/g (w.w.)"}, {"measurement": "cytosine, cerebral concentration", "setting": "[1]", "value": "17.69 ± 2.50^b,d nmol/g (w.w.)"}, {"measurement": "guanine, cerebral concentration", "setting": "[1]", "value": "4.80 ± 1.24^b nmol/g (w.w.)"}, {"measurement": "guanosine, cerebral concentration", "setting": "[1]", "value": "20.71 ± 5.66 nmol/g (w.w.)"}, {"measurement": "hypoxanthine, cerebral concentration", "setting": "[1]", "value": "14.47 ± 2.87^a nmol/g (w.w.)"}, {"measurement": "inosine, cerebral concentration", "setting": "[1]", "value": "92.55 ± 31.20^c nmol/g (w.w.)"}, {"measurement": "malonyl-CoA, cerebral concentration", "setting": "[1]", "value": "12.33 ± 1.82^b nmol/g (w.w.)"}, {"measurement": "orotic acid, cerebral concentration", "setting": "[1]", "value": "8.80 ± 2.45^b,h,j nmol/g (w.w.)"}, {"measurement": "thymidine, cerebral concentration", "setting": "[1]", "value": "0.69 ± 0.11 nmol/g (w.w.)"}, {"measurement": "uracil, cerebral concentration", "setting": "[1]", "value": "14.56 ± 5.44 nmol/g (w.w.)"}, {"measurement": "uric acid, cerebral concentration", "setting": "[1]", "value": "23.62 ± 3.77^a,d,h nmol/g (w.w.)"}, {"measurement": "uridine, cerebral concentration", "setting": "[1]", "value": "76.35 ± 12.85^a,c nmol/g (w.w.)"}, {"measurement": "xanthine, cerebral concentration", "setting": "[1]", "value": "9.46 ± 2.34^d nmol/g (w.w.)"}, {"measurement": "β-pseudouridine, cerebral concentration", "setting": "[1]", "value": "6.65 ± 1.30^g,i nmol/g (w.w.)"}, {"measurement": "ADO, cerebral concentration", "setting": "[2]", "value": "82.11 ± 16.51^a nmol/g (w.w.)"}, {"measurement": "ADP, cerebral concentration", "setting": "[2]", "value": "264.07 ± 28.29^b,e,j nmol/g (w.w.)"}, {"measurement": "ADP-ribose, cerebral concentration", "setting": "[2]", "value": "141.96 ± 23.56^a,e,j nmol/g (w.w.)"}, {"measurement": "AMP, cerebral concentration", "setting": "[2]", "value": "57.70 ± 23.01^a,e,j nmol/g (w.w.)"}, {"measurement": "ATP, cerebral concentration", "setting": "[2]", "value": "1632.23 ± 90.07^a,e,j nmol/g (w.w.)"}, {"measurement": "CDP choline, cerebral concentration", "setting": "[2]", "value": "6.91 ± 1.86 nmol/g (w.w.)"}, {"measurement": "CDP, cerebral concentration", "setting": "[2]", "value": "24.29 ± 6.76^a nmol/g (w.w.)"}, {"measurement": "CMP, cerebral concentration", "setting": "[2]", "value": "15.68 ± 2.12^f,j nmol/g (w.w.)"}, {"measurement": "CTP, cerebral concentration", "setting": "[2]", "value": "32.63 ± 3.99^e,i nmol/g (w.w.)"}, {"measurement": "CoA-SH, cerebral concentration", "setting": "[2]", "value": "30.57 ± 6.02^f nmol/g (w.w.)"}, {"measurement": "GDP glucose, cerebral concentration", "setting": "[2]", "value": "49.25 ± 10.33^a nmol/g (w.w.)"}, {"measurement": "GDP, cerebral concentration", "setting": "[2]", "value": "126.70 ± 31.35^a,j nmol/g (w.w.)"}, {"measurement": "GMP, cerebral concentration", "setting": "[2]", "value": "91.47 ± 12.35^e,i nmol/g (w.w.)"}, {"measurement": "GSH, cerebral concentration", "setting": "[2]", "value": "2821.50 ± 242.82^a,e nmol/g (w.w.)"}, {"measurement": "GSSG, cerebral concentration", "setting": "[2]", "value": "219.54 ± 53.36 nmol/g (w.w.)"}, {"measurement": "GTP, cerebral concentration", "setting": "[2]", "value": "336.65 ± 35.18^a,e,j nmol/g (w.w.)"}, {"measurement": "IMP, cerebral concentration", "setting": "[2]", "value": "102.63 ± 22.09^a nmol/g (w.w.)"}, {"measurement": "MDA, cerebral concentration", "setting": "[2]", "value": "4.82 ± 1.73^a,e,i nmol/g (w.w.)"}, {"measurement": "NADH, cerebral concentration", "setting": "[2]", "value": "13.12 ± 4.19^e nmol/g (w.w.)"}, {"measurement": "NADPH, cerebral concentration", "setting": "[2]", "value": "7.05 ± 2.21 nmol/g (w.w.)"}, {"measurement": "NADP^+, cerebral concentration", "setting": "[2]", "value": "21.27 ± 4.19^b,e,j nmol/g (w.w.)"}, {"measurement": "NAD^+, cerebral concentration", "setting": "[2]", "value": "401.18 ± 34.53^a,e,i nmol/g (w.w.)"}, {"measurement": "NM, cerebral concentration", "setting": "[2]", "value": "7262.84 ± 749.73^a,e nmol/g (w.w.)"}]}
